This note sets out measurements from patent publication US20130252950A1, “TARGETING MTOR SUBSTRATES IN TREATING PROLIFERATIVE DISEASES” (President and Fellows of Harvard College, priority 2010, published 2013).

For series [1], the system named is Grb10 S501/S503 phosphorylation in TSC2−/− cells. The series is described as follows: Immunoblot of Grb10 S501/S503 phosphorylation with phospho-specific antibody. The series is classed as cell-based, mouse. The note with it: serum-starved TSC2−/− cells, two hours; rapamycin 20 nM, staurosporine 100 nM, LY294002 20 μM, BEZ235 500 nM, torin 100 nM, pp 242 1 μM, Ku-0063794 at indicated concentrations. As for the experimental part:
(§1) FIG. 2. Phosphorylation of Grb10 at S501/S503 is sensitive to rapamycin inhibition. (A) Identification of a doubly-phosphorylated rapamycin-sensitive Grb10 peptide (MNILSS*QS*[…] , SEQ ID NO: 2, * indicates phosphorylation sites) corresponding to S501/S503. (B) Evolutionary conservation of Grb10 S501/S503 among vertebrate species. […] TSC2−/− cells were starved for serum and treated with 20 nM rapamycin for the indicated times. Sequences, from top to bottom: SEQ ID NO: 1723 to SEQ ID NO: 1727, respectively. (D) Phosphorylation of Grb10 at S501/501 is sensitive to amino acids withdrawal. TSC2−/− cells were starved in DMEM overnight and then transferred to D-PBS for the indicated times. (E) Phosphorylation of Grb10 at S501/S503 is not affected by the pan-kinase inhibitor, staurosporine. TSC2−/− cells were starved for serum and treated with either 100 nM staurosporine or Ku-0063794 at the indicated concentrations for two hours. (F) Grb10 phosphorylation is increased upon growth factor stimulation. Wild type (WT) mouse embryonic fibroblasts (MEFs) were starved for serum overnight and then were stimulated with insulin (100 nM) or serum (10%) for 15 min. The cells were preincubated with the indicated compounds for two hours. […] Rapamycin (rapa) was used at 20 nM. (G) Grb10 phosphorylation at S501/S503 is sensitive to various mTOR kinase inhibitors. TSC2−/− cells were serum-starved and treated with the indicated compounds for two hours. The concentrations of the compounds were rapamycin 20 nM, LY (LY294002) 20 μM, BEZ235 (NVP-BEZ235) 500 nM, torin 100 nM, and pp 242 1 μM.
We developed a phosphospecific antibody (FIGS. 9A and 9B) to further characterize these two Grb10 phosphorylation sites. […] The dephosphorylation kinetics correlated well with that of S6K.
We further investigated the effects of growth factor stimulation and rapamycin-mediated inhibition on Grb10 phosphorylation in other cell types. Wild-type MEFs were serum-starved and then stimulated with either insulin or 10% serum, both of which led to a robust increase in Grb10 phosphorylation (FIG. 2F). […] It was previously reported that Grb10 S503 (S476 in human Grb10 isoform 3) was phosphorylated by ERK1/2 in vitro (13).

The subject of series [2] is Grb10 protein in TSC2−/− cells. Put plainly: Immunoblot of Grb10 protein level after long-term treatment. The series is classed as cell-based, mouse. Particulars: TSC2−/− cells, endogenous Grb10. From the text: FIG. 3. mTOR-mediated Grb10 phosphorylation is important for Grb10 stability. (A) Grb10 interacts with raptor, but not rictor. HA-tagged Grb10 was co-transfected with Myc-raptor or Myc-rictor in HEK293T cells. Cells were lysed in lysis buffer A, and the lysates were subjected to immunoprecipitation using anti-HA antibody conjugated beads. Raptor and rictor were probed with an antibody against the Myc-tag. (B) Grb10 is phosphorylated by mTOR in vitro. […] Phosphorylation of Grb10 at S501/S503 was detected by using the phospho-specific antibody against these two sites. (C) Long-term rapamycin treatment leads to Grb10 degradation in TSC2−/− cells. Note that Grb10 protein expression levels inversely correlated with Akt activity. Grb10 is highly overexpressed in TSC2−/− cells. mRNA level was determined using quantitative RT-PCR based on three biological replicate experiments. (D) Knockdown of raptor in TSC2−/− cells decreased Grb10 protein level. Cells were starved overnight and the lysates were probed with the antibodies indicated. (E) Grb10 is highly overexpressed in TSC2−/− cells. (F) S501A/S503A mutant is unstable compared with the wild-type or the S501D/S503D mutant. The same amount of DNA was transfected into HEK293T cells. […] Endogenous Grb10 was detected using an antibody that preferentially recognizes mouse Grb10 whereas the Grb10 DD mutant (of human origin) was detected using an anti-HA antibody.
(§2) FIG. 9. Phosphorylation of Grb10 at S501/S503 regulates its stability. […] Preincubation of the antibody with the […] completely eliminated the immunoreactivity. (B) Further validation of the phospho-specific antibody raised against the Grb10 S501/S503 sites. Grb10 WT, S501A/S503A (AA) and S501D/S503D (DD) were transfected into HEK239T cells and were probed with the antibody. Note that this antibody detected wild type (WT) Grb10, but neither of the mutant proteins. (C) Treatment of TSC2−/− cells with various mTOR kinase inhibitors led to Grb10 degradation. […] (E) Grb10 is highly overexpressed in TSC1−/− cells compared with their wild-type counterparts. (F) rapamycin treatment of TSC2−/− cells stably expressing wild type (WT) Grb10 led to lower levels of both endogenous and exogenous Grb10.
In addition, long-term treatment with mTOR kinase inhibitors, including LY-294002, NVP-BEZ235, torin and pp 242 all led to reduced Grb10 protein expression (FIG. 9C). Similar results were obtained in TSC1−/− MEFs (FIG. 9D). In contrast, we found Grb10 was highly overexpressed in TSC2−/− and TSC1−/− MEFs compared with their wild-type counterparts (FIGS. 3E and 9E), correlating with elevated mTORC1 activity in these cells. […]

The test system of series [3] is Grb10 protein in TSC1−/− cells. The series is described as follows: Immunoblot of Grb10 protein level in TSC1−/− cells. The series is classed as cell-based, mouse. As for the experimental part:
as §2
In addition, long-term treatment with mTOR kinase inhibitors, including LY-294002, NVP-BEZ235, torin and pp 242 all led to reduced Grb10 protein expression (FIG. 9C). Similar results were obtained in TSC1−/− MEFs (FIG. 9D). In contrast, we found Grb10 was highly overexpressed in TSC2−/− and TSC1−/− MEFs compared with their wild-type counterparts (FIGS. 3E and 9E), correlating with elevated mTORC1 activity in these cells.

Series [4] has as its system phospho-mTOR S2481 in TSC2−/− cells. Put plainly: Immunoblot of mTOR S2481 phosphorylation. The series is classed as cell-based, mouse. The note with it: starved TSC2−/− cells; 20 nM rapamycin acute treatment; pp 242 two hours.
Series [5] has as its system Akt phosphorylation. Put plainly: Immunoblot of insulin-induced Akt phosphorylation. Particulars: FIG. 5C.
Method: For the Ku-screen, wild-type MEFs were grown in light and heavy SILAC media and starved overnight for serum. […] Both the light and heavy cell were subsequently stimulated with insulin for 15 minutes and samples were pooled and analyzed by quantitative mass spectrometry.
Samples were boiled for 5 min and subject to electrophoresis using the standard SDS-PAGE method. Proteins were then transferred to a nitrocellulose membrane (Whatman). The membranes were blocked with a TBST buffer (25 mM Tris-HCl, pH 7.5, 150 mM NaCl, 0.05% Tween 20) containing 3% nonfat dried milk, and probed overnight with primary antibodies at 4° C. and for 1 h at RT with peroxidase-conjugated secondary antibodies. Blots were developed using enhanced chemiluminescence, exposed on autoradiograph film and developed using standard methods.
Series [6] relates to wild-type MEFs. Put plainly: Ku-0063794 screen: SILAC quantitative phosphoproteomics in rapamycin-inhibited, insulin-stimulated cells.
The subject of series [7] is Grb10 S501/S503 phosphorylation in wild type (WT) MEFs. The series is described as follows: Immunoblot of Grb10 phosphorylation after insulin or serum stimulation. The series is classed as cell-based, mouse. The note with it: serum-starved WT MEFs, preincubated two hours (rapamycin 20 nM, AZD6244 5 μM), insulin 100 nM or serum 10% 15 min. As for the experimental part: as §1, with “TSC2−/− cells were serum-starved and treated with the indicated compounds for two hours. The concentrations of the compounds were rapamycin 20 nM, LY (LY294002) 20 μM, BEZ235 (NVP-BEZ235) 500 nM, torin 100 nM, and pp 242 1 μM.” left out

Series [8] deals with ERK in wild type (WT) MEFs. Put plainly: Immunoblot of ERK activity after growth factor stimulation. The note with it: serum-starved WT MEFs, AZD6244 5 μM two hours, insulin or serum 15 min. The series is classed as cell-based, mouse. As for the experimental part:
as §1, with “TSC2−/− cells were serum-starved and treated with the indicated compounds for two hours. The concentrations of the compounds were rapamycin 20 nM, LY (LY294002) 20 μM, BEZ235 (NVP-BEZ235) 500 nM, torin 100 nM, and pp 242 1 μM.” left out

In series [9] the test system is rpS6 phosphorylation in TSC2−/− cells. The series is described as follows: Immunoblot of rpS6 phosphorylation (S6K activity). The series is classed as cell-based, mouse. Particulars: serum-starved TSC2−/− cells, 100 nM staurosporine, two hours. As for the experimental part: as §1, with “TSC2−/− cells were serum-starved and treated with the indicated compounds for two hours. The concentrations of the compounds were rapamycin 20 nM, LY (LY294002) 20 μM, BEZ235 (NVP-BEZ235) 500 nM, torin 100 nM, and pp 242 1 μM.” left out

Series [10] concerns the target T1, Myc-tagged rictor (pRK5-Myc-Rictor) (UniProt Q6R327 1-1708).
T1 construct: Co-overexpressed with HA-Grb10 in HEK293T cells; not shown: Myc tag
Put plainly: co-immunoprecipitation with anti-HA beads from co-transfected HEK293T cells, anti-Myc blot.

The mark [11] stands for this setting: downregulated phosphorylation, wt MEFs, 20 nM rapamycin + 2 μM Ku-0063794 2 h vs rapamycin alone, insulin 15 min.

T1 sequence (Q6R327 whole entry): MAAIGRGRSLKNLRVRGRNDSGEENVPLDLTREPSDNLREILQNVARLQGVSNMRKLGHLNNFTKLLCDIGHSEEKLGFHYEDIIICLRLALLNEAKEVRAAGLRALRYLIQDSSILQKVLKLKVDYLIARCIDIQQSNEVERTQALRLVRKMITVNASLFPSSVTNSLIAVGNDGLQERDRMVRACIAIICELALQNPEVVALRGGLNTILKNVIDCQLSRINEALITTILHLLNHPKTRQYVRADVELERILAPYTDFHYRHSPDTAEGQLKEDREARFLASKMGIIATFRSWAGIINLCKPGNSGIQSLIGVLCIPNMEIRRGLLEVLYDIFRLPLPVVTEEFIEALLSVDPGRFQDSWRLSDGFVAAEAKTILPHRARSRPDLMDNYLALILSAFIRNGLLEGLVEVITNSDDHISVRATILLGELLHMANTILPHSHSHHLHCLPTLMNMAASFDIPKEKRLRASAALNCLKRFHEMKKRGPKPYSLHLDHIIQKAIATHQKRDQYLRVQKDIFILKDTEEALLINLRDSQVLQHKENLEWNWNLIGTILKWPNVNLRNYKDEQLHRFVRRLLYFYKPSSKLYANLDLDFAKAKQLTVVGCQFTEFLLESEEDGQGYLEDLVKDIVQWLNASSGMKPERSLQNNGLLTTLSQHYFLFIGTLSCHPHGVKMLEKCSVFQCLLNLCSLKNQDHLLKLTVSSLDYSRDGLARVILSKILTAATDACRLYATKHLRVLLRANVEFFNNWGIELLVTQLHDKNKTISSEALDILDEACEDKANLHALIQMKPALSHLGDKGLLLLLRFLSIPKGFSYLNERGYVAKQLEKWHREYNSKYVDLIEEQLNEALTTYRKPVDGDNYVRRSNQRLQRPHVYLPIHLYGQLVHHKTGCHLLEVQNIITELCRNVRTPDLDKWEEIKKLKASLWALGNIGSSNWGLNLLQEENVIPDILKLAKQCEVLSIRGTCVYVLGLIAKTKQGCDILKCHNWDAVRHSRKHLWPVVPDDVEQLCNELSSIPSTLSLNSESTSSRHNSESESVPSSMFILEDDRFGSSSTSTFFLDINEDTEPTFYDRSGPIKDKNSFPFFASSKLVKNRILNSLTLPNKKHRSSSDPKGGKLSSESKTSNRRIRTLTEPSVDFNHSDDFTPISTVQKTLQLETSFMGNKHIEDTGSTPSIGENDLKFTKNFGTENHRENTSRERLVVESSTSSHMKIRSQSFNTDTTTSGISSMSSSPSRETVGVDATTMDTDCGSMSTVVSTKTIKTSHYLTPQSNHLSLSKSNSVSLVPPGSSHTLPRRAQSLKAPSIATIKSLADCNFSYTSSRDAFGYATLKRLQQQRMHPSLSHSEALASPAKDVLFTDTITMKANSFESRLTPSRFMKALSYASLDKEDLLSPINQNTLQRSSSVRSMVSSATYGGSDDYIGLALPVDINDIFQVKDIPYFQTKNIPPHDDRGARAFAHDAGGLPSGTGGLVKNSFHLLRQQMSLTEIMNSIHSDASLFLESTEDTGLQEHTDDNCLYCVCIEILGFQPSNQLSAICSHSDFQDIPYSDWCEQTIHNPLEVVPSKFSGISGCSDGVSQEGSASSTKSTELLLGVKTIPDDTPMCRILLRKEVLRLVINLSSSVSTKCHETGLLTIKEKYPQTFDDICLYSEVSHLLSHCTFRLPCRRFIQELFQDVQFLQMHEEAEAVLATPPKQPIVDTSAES

On to `Cn1c(=O)n(-c2ccc(C(C)(C)C#N)cc2)c2c3cc(-c4cnc5ccccc5c4)ccc3ncc21` [NVP-BEZ235], for which the “Grb10 S501/S503 phosphorylation (immunoblot)” value in series [1] is “completely abolished”. In addition, the “Grb10 protein levels after long-term treatment” value (from here on “Grb10 protein levels”) in [2] was “reduced”. In [3], the “level of Grb10 in TSC1−/− cells” value is recorded as “decreased level”.
Turning to `CCC(=O)N1CCN(c2ccc(-n3c(=O)ccc4cnc5ccc(-c6cnc7ccccc7c6)cc5c43)cc2C(F)(F)F)CC1` [torin], in series [1], the “Grb10 S501/S503 phosphorylation (immunoblot)” value is “completely abolished”. Besides, the “Grb10 protein levels” value in series [2] is “reduced”.
Regarding `CC(C)n1nc(-c2cc3cc(O)ccc3[nH]2)c2c(N)ncnc21` [pp 242], the “Grb10 S501/S503 phosphorylation (immunoblot)” value in [1] is “completely abolished”. Also, in series [4], the “mTOR S2481 phosphorylation (immunoblot)” value is given as “completely ablated”. The “Grb10 protein levels” value in series [2] is on record as “reduced”.
As to `COc1ccc(-c2ccc3c(N4CCOCC4)nc(N4C[C@@H](C)O[C@@H](C)C4)nc3n2)cc1CO` [Ku-0063794], the “Grb10 S501/S503 phosphorylation (immunoblot)” value in series [1] is on record as “dose-dependent dephosphorylation”. In addition, in series [5], the “insulin-induced Akt phosphorylation” value is listed as “inhibits”. In addition, in [6] (Ku-0063794 screen), the “4EBP T36/T45 phosphorylation (FIG. 6A)” value is “completely abolished” and the “intensity of T70 singly phosphorylated 4EBP1 peptide” value is “did not change”. Besides, the “rpS6 S235/236 phosphorylation (Class I site)” value in [6] (Ku-0063794 screen, rapamycin-inhibited background) is reported as “not further decreased”. Besides, in [6] (setting [11]), the “Median (treated/ctrl) fold-change of phosphopeptide DRSSS*APNVHINTIEPVNIDDLIR, Braf S312” value stood at 2.1 fold; the “Median (treated/ctrl) fold-change of phosphopeptide Eif4ebp1 T36, T45” value is listed as 7.2 fold; the “Median (treated/ctrl) fold-change of phosphopeptide Eif4ebp2 S65” value was 6.8 fold; the “Median (treated/ctrl) fold-change of phosphopeptide LGS*FGSITR, Flnc S2234” value stood at 2.4 fold. In addition, in series [6] (setting [11]), the “Median (treated/ctrl) fold-change of phosphopeptide LNT*SDFQK, Akt1s1 T247” value is given as 31.3 fold; the “Median (treated/ctrl) fold-change of phosphopeptide TAS*GSS*VTSLEGTR, Ndrg1 S330, S333” value was determined as 4.1 fold; the “Median (treated/ctrl) fold-change of phosphopeptide TGS*ESSQTGASATSGR, Eif4b S422” value was found to be 2.2 fold; the “Median (treated/ctrl) fold-change of phosphopeptide TTS*FAESCKPVQQPSAFGSMK, Gsk3β S9” value was approximately 2.2 fold.
Consider `Cn1cnc2c(F)c(Nc3ccc(Br)cc3Cl)c(C(=O)NOCCO)cc21` [AZD6244], for which the “insulin- or serum-induced Grb10 S501/S503 phosphorylation” value in series [7] was “no effect”. The “activities of ERK” value in series [8] is recorded as “completely abolished”.
With `CN[C@@H]1C[C@H]2O[C@@](C)([C@@H]1OC)n1c3ccccc3c3c4c(c5c6ccccc6n2c5c31)C(=O)NC4` [staurosporine], the “Grb10 S501/S503 phosphorylation (immunoblot)” value in series [1] was “No change”. In addition, the “rpS6 phosphorylation (S6K activity)” value in series [9] is listed as “complete loss”.

B1: HA-tagged Grb10 (human growth factor receptor-bound protein 10, wild type) (other, UniProt Q13322-3 1-536, looked up)
chain: MNASLESLYSACSMQSDTVPLLQNGQHARSQPRASGPPRSIQPQVSPRQRVQRSQPVHILAVRRLQEEDQQFRTSSLPAIPNPFPELCGPGSPPVLTPGSLPPSQAAAKQDVKVFSEDGTSKVVEILADMTARDLCQLLVYKSHCVDDNSWTLVEHHPHLGLERCLEDHELVVQVESTMASESKFLFRKNYAKYEFFKNPMNFFPEQMVTWCQQSNGSQTQLLQNFLNSSSCPEIQGFLHVKELGKKSWKKLYVCLRRSGLYCSTKGTSKEPRHLQLLADLEDSNIFSLIAGRKQYNAPTDHGLCIKPNKVRNETKELRLLCAEDEQTRTCWMTAFRLLKYGMLLYQNYRIPQQRKALLSPFSTPVRSVSENSLVAMDFSGQTGRVIENPAEAQSAALEEGHAWRKRSTRMNILGSQSPLHPSTLSTVIHRTQHWFHGRISREESHRIIKQQGLVDGLFLLRDSQSNPKAFVLTLCHHQKIKNFQILPCEDDGQTFFSLDDGNTKFSDLIQLVDFYQLNKGVLPCKLKHHCIRVAL
notes: Expressed by transfection in HEK293T cells; The phospho-specific antibody recognises it in the form phosphorylated at S501/S503 (mouse isoform 1 numbering) in cells; also called WT-Grb10; Grb10 WT; not shown: HA tag from vector pKH3
In the case of B1, the binding result in series [10] is listed as “no binding”.
